Experimental data taken from paper PMC12169615, “Fluorescent 4‑Nitrobenzo-2-oxa-1,3-diazole-Coupled Bile Acids as Probe Substrates of Hepatic and Intestinal Bile Acid Transporters of the Solute Carrier Families SLC10 and SLCO” (Journal of Medicinal Chemistry, 2025).

What was measured:
mouse mAsbt = target: T1, mouse mAsbt (Mus musculus, UniProt P70172); assay: cell-based
T1 sequence (P70172 1-348): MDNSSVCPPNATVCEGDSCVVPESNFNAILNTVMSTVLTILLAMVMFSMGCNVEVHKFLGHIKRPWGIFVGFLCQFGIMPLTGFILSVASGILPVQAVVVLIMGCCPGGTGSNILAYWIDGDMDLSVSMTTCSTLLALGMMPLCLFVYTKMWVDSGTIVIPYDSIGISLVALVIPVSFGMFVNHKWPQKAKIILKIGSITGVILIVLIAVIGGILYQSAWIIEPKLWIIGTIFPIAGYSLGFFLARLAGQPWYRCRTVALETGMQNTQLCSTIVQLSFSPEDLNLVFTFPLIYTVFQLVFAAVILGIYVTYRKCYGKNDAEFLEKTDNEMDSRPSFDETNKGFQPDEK
Method: (§1) HEK293 cells stably expressing human NTCP (A), mouse mNtcp (B), human ASBT (C), or mouse mAsbt (D) were used for transport experiments with 3α-NBD-GCA (16d) as the substrate. Fluorescence data in the absence of inhibitors were set as 100% and the fluorescence levels in sodium-free transport buffer were set to 0%. […] Half-maximal inhibitory concentrations (IC50) were calculated by nonlinear regression analysis.
(§2) For quantitative transport experiments, cells were seeded onto polylysine-coated 96-well plates and grown to confluence over 72 h at 37 °C. Then, cells were washed three times with phosphate-buffered saline (PBS), containing 137 mM NaCl, 2.7 mM KCl, 1.5 mM, KH2PO4, and 7.3 mM Na2HPO4 (pH 7.4) followed by preincubation in sodium transport buffer (STB) containing 142.9 mM NaCl, 4.7 mM KCl, 1.2 mM MgSO4, 1.2 mM KH2PO4, 1.8 mM CaCl2, and 20 mM HEPES (pH 7.4). For transport assays under sodium-free conditions (-Na^+), sodium chloride of the STB was substituted with equimolar concentrations of choline chloride. […] Then, transport experiments were started by adding 20 μL STB containing 125 μM of 3α-NBD-GCA (final substrate concentration: 25 μM). All transport experiments were stopped after 10 min, if not otherwise indicated, by aspirating the transport buffer and washing the cells twice with ice-cold PBS. […]

human ASBT = target: T2, human ASBT (Homo sapiens, UniProt Q12908); assay: cell-based
T2 sequence (Q12908 1-348): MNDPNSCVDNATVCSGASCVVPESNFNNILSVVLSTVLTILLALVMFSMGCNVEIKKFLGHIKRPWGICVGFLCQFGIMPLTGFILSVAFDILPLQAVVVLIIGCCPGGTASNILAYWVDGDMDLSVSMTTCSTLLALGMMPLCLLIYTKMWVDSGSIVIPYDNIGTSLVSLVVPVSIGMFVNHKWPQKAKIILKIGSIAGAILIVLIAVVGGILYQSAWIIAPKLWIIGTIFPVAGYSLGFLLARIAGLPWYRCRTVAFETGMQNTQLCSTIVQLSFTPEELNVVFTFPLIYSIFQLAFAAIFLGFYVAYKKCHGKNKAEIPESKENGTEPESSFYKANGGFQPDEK
Method: as §1, §2

[1] = design: method as in Petzinger et al.; conditions: after in situ ileal perfusion, rat, within 120 min; ref Petzinger et al.; cited from earlier work

IC50 (mouse mAsbt) [µM] | IC50 (human ASBT) [µM] | Structure (SMILES) | Compound secreted into bile [1] [%]
18.9 | 19.5 | Cc1c(C)c2c(c(C)c1O)CCC(C)(COc1ccc(CC3SC(=O)NC3=O)cc1)O2 (stereo not drawn) [troglitazone] | –
– | – | C[C@H](CCC(=O)NCCS(=O)(=O)O)[C@H]1CC[C@H]2[C@@H]3[C@H](O)C[C@@H]4CC(Nc5ccc([N+](=O)[O-])c6nonc56)CC[C@]4(C)[C@H]3C[C@H](O)[C@]12C (stereo partly drawn) [S4148] | 76
